Source: article PMC3586229 (Bioorganic & medicinal chemistry letters, 2012)

Format: physicochemical
Settings: for Stability in aqueous solution (MS, time course): DMSO solution diluted 1 to 1000 in water, followed over 24 h

Row | Compound | Stability in aqueous solution (MS, time course) | Stability in buffer solution (buffer solution, pH 7.4)
1 | CC(C)C[C@H](NC(=O)OCc1ccccc1)C(=O)N[C@@H](CC1CCNC1=O)C(O)S(=O)(=O)[O-].[Na+] (stereo partly drawn) [Compound 7a] | remains unchanged as the bisulfite form after 24 h | gradually dissociates into the corresponding aldehyde 6a within an hour
2 | CC(C)C[C@H](NC(=O)OCc1ccccc1)C(=O)N[C@H](C=O)CC1CCNC1=O (stereo partly drawn) [Compound 6a] | the hydrated form was the dominant species after only five minutes exposure to water | –
